Laboratory results reported in patent US20170105999A1, “METHOD FOR TREATING DRUG RESISTANT CANCER” (NATIONAL YANG MING UNIVERSITY, priority 2014, published 2017).

Tests used:
[1] = system: drug resistant cancer; assay: Clinical observation study, prochlorperazine added as maintenance therapy; settings: after prochlorperazine treatment added to salvage therapy; patients
Method: All of the cases were treated according to clinical guideline. Life expectancy of all patients was less than 3 months.

[2] = system: A549 cells; assay: Transwell migration assay; format: cell-based; settings: A549, 10 μM, 24 hours, vs DMSO controls
Source text: EMT also plays a critical role in the regulation of cancer sternness. EMT is characterized by enhanced cell migration and invasion.

[3] = system: H441; assay: Tumor spheroid (sphere formation) assay; format: cell-based, human; settings: H441, adenocarcinoma
[4] = system: CL152 spheres; assay: Cytotoxicity at sphere cells, Trypan Blue Exclusion method; format: cell-based; settings: read-out: IC50 for prochlorperazine metabolites
[5] = system: NCI-H441; assay: Subcutaneous NCI-H441 tumor in NOD/SCID mice; format: in vivo; settings: 5 mg/kg, 5 days/week, i.p.; four weeks post treatment; vs vehicle, p<0.01
Method: In the first trial, human lung cancer cell line NCI-H441 (purchased from ATCC, 1 million cells/injection) cells were subcutaneously injected into the right flank of NOD/SCID mice (female, 4-6 weeks old). […] Over the period of 4 weeks, tumorigenesis in both groups was measured using a caliper on a weekly basis. The change in tumor size was expressed as in fold change and plotted over time.
In the first trial (FIG. 3A), NCI-H441 (1×10^6 cells/injection) cells were subcutaneously injected into the right flank of NOD/SCID mice (female, 4-6 weeks old).

[6] = system: NSCLC cell lines; assay: Clonogenic assay in NSCLC cell lines; format: cell-based; settings: different concentration of prochlorperazine
Method: Tested cells were seeded respectively in 6 well plates with 10^4 cells per well for 14 days. […] After removing the crystal violet carefully and rinse with tap water, the colonies were counted manually.
(§1) A549, A549-ON, CL97, CL141, HCC827, and H441 were lung adenocarcinoma cell lines. CL152, H2170, and H226 were squamous cell carcinoma cell lines. Cell viability was determined by SRB assay. […] To determine whether side population (SP) cells, which represent a cell population with CSC characteristics, exist in NSCLC cell lines, we stained the cells with the fluorescent dye, Hoechst 33342, and analyzed the cells with flow cytometry.

[7] = system: CL141; assay: Aldefluor assay (ALDH-positive cell population); format: cell-based; settings: CL141, adenocarcinoma
Method: (§2) Briefly, single cells obtained from cell cultures were incubated in an Aldefluor assay buffer containing an ALDH substrate (bodipy-aminoacetaldehyde, BAAA) for 50 minutes at 37° C.

[8] = system: A549; assay: Aldefluor assay (ALDH-positive cell population); format: cell-based; settings: A549, adenocarcinoma
Method: as §2

[9] = system: CL97; assay: Aldefluor assay (ALDH-positive cell population); format: cell-based; settings: CL97, adenocarcinoma
Method: as §2

[10] = system: U87MG; assay: Tumor spheroid (sphere formation) assay; format: cell-based; settings: brain cancer
[11] = system: CL141; assay: Tumor spheroid (sphere formation) assay; format: cell-based
[12] = system: HCC827; assay: Tumor spheroid (sphere formation) assay
Method: In brief, single cells were plated in 6-well ultralow attachment plates (Coming Inc.) at a density of 2,000 cells/mL in tumor spheroid culture medium, DMEM/F12 supplemented with 1% N2 Supplement (Invitrogen), 10 ng/mL basic fibroblast growth factor (Sigma-Aldrich), 10 ng/mL epidermal growth factor (Invitrogen) with 1% penicillin/streptomycin (Invitrogen) at 37° C. in a humidified atmosphere of 95% air and 5% CO2. Cells were cultured twice per week. When passaged, tumor spheres were harvested. Spheroids were dissociated with TrypLE™ (Invitrogen). Spheroids cell counting using the Trypan Blue Exclusion method.

[13] = system: CL97; assay: Tumor spheroid (sphere formation) assay; format: cell-based
[14] = system: CL97; assay: CL97 (adenocarcinoma) tumor-bearing NOD/SCID mice, standard regimen combination; format: in vivo
[15] = system: NSCLC cell lines; settings: conclusion in words
Method: Cells were plated in 96-well plates at a density of 2000 cells per well in triplicate. The cells were treated on the third day (to ensure proper plating efficiency and vitality) to indicated agents for 48 hrs. […] Cytotoxicity was assessed using the sulforhodamine B (SRB) assay (23). Briefly, the medium was discarded, and the adherent cells were fixed by 100 μl of cold 10% trichioroacetic acid (w/v) in each well for 1 h at 4° C. After fixation, cells were stained with 100 μl/well of 0.4% (w/v, in 1% acetic acid) SRB solution for 30 min at room temperature, and then washed 5 times with 1% acetic acid. After air-drying, 100 μl of 10 mM Tris base was added to each well and the absorbance was read at 530 nm. Cytotoxicity is expressed as the percent of cells in drug treated wells relative to number of cells in the solvent only control (set to 100%). Each experiment was performed independently at least 2 times in triplicate and cytotoxicity is given as means ±SD.
as §1

[16] = system: CL152; assay: Aldefluor assay (ALDH-positive cell population)
[17] = system: SK-Hep 1; assay: Tumor spheroid (sphere formation) assay; format: cell-based; settings: SK-Hep 1, liver cancer
[18] = system: Mahlavu; assay: Tumor spheroid (sphere formation) assay; format: cell-based; settings: liver cancer
[19] = system: MDA-MB-231; assay: Tumor spheroid (sphere formation) assay; format: cell-based; settings: MDA-MB-231, breast cancer
[20] = system: H441; assay: Side population analysis by flow cytometry (Hoechst 33342); format: cell-based, human; settings: H441, adenocarcinoma
Method: Single-cell suspensions of cells were detached from dishes with Trypsin-EDTA (Invitrogen) and suspended at 1×10^6 cells/mL in Hank's balanced salt solution ([…]) supplemented with 3% fetal calf serum and 10 mM Hepes. These cells were then incubated at 37° C. for 90 minutes with 20 μg/mL Hoechst 33342 (Sigma Chemical, St. Louis, Mo.). […] After 90 minutes incubation with indicated drugs, the cells were centrifuged immediately for 5 minutes at 300 g and 4° C. and resuspended in ice-cold HBSS, The cells were kept on ice to inhibit efflux of the Hoechst dye, and 1 μg/mL propidium iodide (PI, BD) were added to discriminate dead cells. Finally, these cells were filtered through a 40 μm cell strainer (BD) to obtain single-suspension cells. Cell dual-wavelength analysis and purification were performed on a dual-laser FACS Vantage SE (BD). Hoechst 33342 can be excited at 355 nm UV light and emitted blue fluorescence with a 450/20 band-pass (BP) filter and red fluorescence with a 675 nm edge filter long-pass (EFLP). […]
A549, A549-ON, CL97, CL141, HCC827, and H441 were lung adenocarcinoma cell lines. […] Cell viability was determined by SRB assay. […] To determine whether side population (SP) cells, which represent a cell population with CSC characteristics, exist in NSCLC cell lines, we stained the cells with the fluorescent dye, Hoechst 33342, and analyzed the cells with flow cytometry.

[21] = system: PANC-1; assay: Tumor spheroid (sphere formation) assay; format: cell-based; settings: PANC-1, pancreatic cancer
[22] = system: CL141; assay: Side population analysis by flow cytometry (Hoechst 33342); format: cell-based; settings: CL141, adenocarcinoma
Method: Single-cell suspensions of cells were detached from dishes with Trypsin-EDTA (Invitrogen) and suspended at 1×10^6 cells/mL in Hank's balanced salt solution ([…]) supplemented with 3% fetal calf serum and 10 mM Hepes. These cells were then incubated at 37° C. for 90 minutes with 20 μg/mL Hoechst 33342 (Sigma Chemical, St. Louis, Mo.). […] After 90 minutes incubation with indicated drugs, the cells were centrifuged immediately for 5 minutes at 300 g and 4° C. and resuspended in ice-cold HBSS, The cells were kept on ice to inhibit efflux of the Hoechst dye, and 1 μg/mL propidium iodide (PI, BD) were added to discriminate dead cells. Finally, these cells were filtered through a 40 μm cell strainer (BD) to obtain single-suspension cells. Cell dual-wavelength analysis and purification were performed on a dual-laser FACS Vantage SE (BD). Hoechst 33342 can be excited at 355 nm UV light and emitted blue fluorescence with a 450/20 band-pass (BP) filter and red fluorescence with a 675 nm edge filter long-pass (EFLP). A 610 nm dichroic mirror short-pass (DMSP) was used to separate the emission wavelengths. PI-positive (dead) cells were excluded from the analysis.
as §1

Q: What does the source list for `CN1CCN(CCCN2c3ccccc3Sc3ccc(Cl)cc32)CC1` [prochlorperazine]?
A: Median PFS (progression-free survival) [1]: 12.8 (7.0-20.1) months; cell migration [2]: significantly inhibited cell migration; Sphere formation [3]: 0 to 2.5 µM; IC50 [4]: < 5 µM; tumor growth [5]: effective in suppressing tumor growth; Clonogenicity of NSCLC cell lines [6]: reduced in a concentration-dependent manner; ALDH^+ assay [7]: <5 µM; ALDH^+ assay [8]: <5 µM; ALDH^+ assay [9]: <5 µM; Sphere formation [10]: 10 to 15 µM; Sphere formation ([11]; CL141, adenocarcinoma): 0 to 2.5 µM; number of spheres ([11]; CL141 sphere cells, 1, 2.5, 5 and 10 μM, 48 hours, concentration-dependent): reduced the number of spheres; number of sphere cells, co-treatment ([11]; CL141 spheres, co-treatment with pemetrexed vs pemetrexed alone, 48 hours): significantly decreased the number of sphere cells; sphere-forming ability ([12]; HCC827): suppressed the sphere-forming ability; Sphere formation ([12]; HCC827, adenocarcinoma): 5 to 10 µM; spheres number, combination with cisplatin ([12]; HCC827, combination with cisplatin vs prochlorperazine or cisplatin alone): lower spheres number; Sphere formation ([13]; CL97, adenocarcinoma): 0 to 2.5 µM; number of spheres ([13]; CL97 sphere cells, 1, 2.5, 5 and 10 μM, 48 hours, concentration-dependent): reduced the number of spheres; number of sphere cells, co-treatment ([13]; CL97 spheres, co-treatment with gefitinib vs gefitinib alone, 48 hours): significantly decreased the number of sphere cells; tumor growth, prochlorperazine alone ([14]; 5 mg/kg): could inhibit tumor growth; tumor growth, standard treatment combined with prochlorperazine ([14]; 50 mg/kg pemetrexed + 3 mg/kg cisplatin + 5 mg/kg prochlorperazine): more significantly inhibitory effect of tumor growth than other treatments; cytotoxic effects in NSCLC cells [15]: low or minimal cytotoxic effects; ALDH^+ CL152 population ([16]; CL152): decreased the ALDH^+ CL152 population in a dose-dependent manner; ALDH^+ assay ([16]; CL152, squamous cell carcinoma): <5 µM; Sphere formation [17]: >5 µM; Sphere formation [18]: >5 µM; Sphere formation [19]: 5 to 10 µM; Side population [20]: <5 µM; Sphere formation [21]: 10 to 20 µM; Side population [22]: >10 µM
